Patent US9353082B2, “Pharmaceutical compounds” (BIAL—PORTELA & CA, S.A., priority 2008, dated 2016)

Tests used:
FAAH [1] = target: T1, FAAH (Rattus norvegicus, UniProt P97612); experiment: In vitro FAAH activity in rat brain membranes, 3H-AEA substrate, % of control; type: biochemical, Wistar rats; settings: low value = strong inhibitor; for In Vitro FAAH activity, 100 nM: 100 nM test compound; for In Vitro FAAH activity, 10 uM: 10 uM test compound; for In Vitro 100 nM (FAAH activity, % of control): rat brain membranes, compound at 100 nM
T1 construct: Frozen brains (without cerebellum) from Wistar rats were used; from tissue; host or cells: Wistar rat brain (without cerebellum), washed membrane pellets
T1 sequence (P97612 1-579): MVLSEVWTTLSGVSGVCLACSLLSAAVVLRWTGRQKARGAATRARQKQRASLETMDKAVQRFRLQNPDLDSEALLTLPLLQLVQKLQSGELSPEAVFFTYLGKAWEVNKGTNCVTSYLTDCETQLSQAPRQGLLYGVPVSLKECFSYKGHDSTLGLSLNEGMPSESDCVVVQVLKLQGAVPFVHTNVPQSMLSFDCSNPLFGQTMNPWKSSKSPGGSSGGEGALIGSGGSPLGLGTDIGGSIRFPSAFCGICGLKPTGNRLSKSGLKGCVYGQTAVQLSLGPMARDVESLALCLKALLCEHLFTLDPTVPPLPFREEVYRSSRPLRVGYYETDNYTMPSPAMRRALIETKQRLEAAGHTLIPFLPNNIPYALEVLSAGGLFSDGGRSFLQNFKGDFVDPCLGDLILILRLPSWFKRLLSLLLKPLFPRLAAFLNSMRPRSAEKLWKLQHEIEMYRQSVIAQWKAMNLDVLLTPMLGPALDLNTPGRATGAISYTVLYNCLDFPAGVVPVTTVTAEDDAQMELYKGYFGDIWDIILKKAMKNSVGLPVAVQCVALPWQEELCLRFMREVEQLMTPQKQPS
In short: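 Wistar rat brain membranes (5 μg protein) preincubated 15 min at 37 °C with compound at 10 μM or 0.1 μM (0.1% DMSO), then 2 μM AEA including 3H-AEA with 0.1% BSA, Tris pH 7.6, 10 min. 3H-ethanolamine counted after charcoal stop; % of no-compound control after blank subtraction.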

FAAH [2] = target: T2, FAAH (Mus musculus, UniProt O08914); experiment: In vivo FAAH inhibition after oral dosing, remaining activity in brain homogenate (BRh, central nervous tissue); parameters: species or system NMRI mice; settings: brain homogenate, 3 mg/kg; for In Vivo BRh 3 mg·kg 8 h (remaining FAAH activity, % of control): 8 h after dosing, low value = strong inhibitor
T2 construct: A fragment of liver, left lung lobe and brain without cerebellum were removed; from tissue; host or cells: male NMRI mice; brain (without cerebellum) and liver homogenates
T2 sequence (O08914 1-579): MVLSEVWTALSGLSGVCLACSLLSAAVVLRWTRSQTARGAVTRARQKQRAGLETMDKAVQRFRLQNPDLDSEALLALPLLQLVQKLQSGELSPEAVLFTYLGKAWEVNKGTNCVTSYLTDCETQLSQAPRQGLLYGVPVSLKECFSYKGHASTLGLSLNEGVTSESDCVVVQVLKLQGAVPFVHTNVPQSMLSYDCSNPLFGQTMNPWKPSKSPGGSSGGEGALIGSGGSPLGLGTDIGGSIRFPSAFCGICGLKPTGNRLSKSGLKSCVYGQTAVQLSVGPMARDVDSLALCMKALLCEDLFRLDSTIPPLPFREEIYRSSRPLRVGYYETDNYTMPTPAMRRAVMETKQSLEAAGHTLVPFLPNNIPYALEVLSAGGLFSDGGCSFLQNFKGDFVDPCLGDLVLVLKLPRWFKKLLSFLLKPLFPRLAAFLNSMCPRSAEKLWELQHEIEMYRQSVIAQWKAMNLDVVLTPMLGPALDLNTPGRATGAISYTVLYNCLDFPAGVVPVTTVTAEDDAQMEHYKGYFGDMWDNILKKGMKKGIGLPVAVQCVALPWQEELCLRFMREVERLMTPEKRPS
In short: (§1)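 Male NMRI mice, fasted overnight, got 30 or 3 mg/kg compound orally (0.5% CMC suspension or water) and were compared with vehicle controls. Brain (no cerebellum) and liver homogenates were incubated with 2 μM AEA plus 5 nM 3H-AEA at 37 °C, 10 min for brain and 7 min for liver. Remaining FAAH activity is % of vehicle after blank subtraction.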

FAAH [3] = target: T2, FAAH; experiment: In vivo FAAH inhibition after oral dosing, remaining activity in liver homogenate (LVh, peripheral tissue); parameters: species or system NMRI mice; settings: liver homogenate, 3 mg/kg; for In Vivo LVh 3 mg·kg 8 h (remaining FAAH activity, % of control): 8 h after dosing, low value = strong inhibitor
In short: as §1

Row | SMILES | In Vitro FAAH activity, 100 nM (FAAH [1]) | In Vivo BRh 3 mg/kg 8 h, remaining FAAH activity (FAAH [2]) | In Vivo LVh 3 mg/kg 8 h, remaining FAAH activity (FAAH [3]) | In Vitro FAAH activity, 10 uM (FAAH [1]) | In Vitro 100 nM (FAAH activity, % of control) (FAAH [1]) | In Vivo BRh 3 mg·kg 8 h (remaining FAAH activity, % of control) (FAAH [2]) | In Vivo LVh 3 mg·kg 8 h (remaining FAAH activity, % of control) (FAAH [3])
1 | CCC1(C)OCCN1C(=O)n1cnc(-c2ccc(Cl)cc2)c1 (stereo not drawn) [Compound 233, (4-(4-chlorophenyl)-1H-imidazol-1-yl)(2-ethyl-2-methyloxazolidin-3-yl)methanone] | 74.1 % of control | 33.5 % of control | 21.1 % of control | – | – | – | –
2 | CC1OCC(C)(C)N1C(=O)n1cnc(-c2ccc(Cl)cc2)c1 (stereo not drawn) [Compound 235, (4-(4-chlorophenyl)-1H-imidazol-1-yl)(2,4,4-trimethyloxazolidin-3-yl)methanone] | 76.2 % of control | 108.5 % of control | 80.1 % of control | – | – | – | –
3 | COc1cccc(-c2cccc(-c3cn(C(=O)N4COCC4(C)C)cn3)c2)c1 [Compound 236, (4,4-dimethyloxazolidin-3-yl)(4-(3′-methoxybiphenyl-3-yl)-1H-imidazol-1-yl)methanone] | 75.4 % of control | 67.7 % of control | 37.7 % of control | – | – | – | –
4 | CN(C(=O)n1cnc(-c2cccc(-c3cccc(C(N)=O)c3)c2)c1)C1CCCCC1 [Compound 238, 4-(3′-carbamoylbiphenyl-3-yl)-N-cyclohexyl-N-methyl-1H-imidazole-1-carboxamide] | 1.2 % of control | 67.9 % of control | 2.8 % of control | – | – | – | –
5 | CN(C(=O)n1cnc(-c2cccc(-c3ccccc3)c2)c1)C1CCCCC1 [Compound 239, 4-(biphenyl-3-yl)-N-cyclohexyl-N-methyl-1H-imidazole-1-carboxamide] | 4 % of control | 16.4 % of control | 4.6 % of control | – | – | – | –
6 | COc1cccc(-c2cccc(-c3cn(C(=O)N(C)C4CCCCC4)cn3)c2)c1 [Compound 240, N-cyclohexyl-4-(3′-methoxybiphenyl-3-yl)-N-methyl-1H-imidazole-1-carboxamide] | 22.4 % of control | 99 % of control | 39.5 % of control | – | – | – | –
7 | CN(C(=O)n1cnc(-c2cccc(-c3ccc(C(N)=O)cc3)c2)c1)C1CCCCC1 [Compound 245, 4-(4′-carbamoylbiphenyl-3-yl)-N-cyclohexyl-N-methyl-1H-imidazole-1-carboxamide] | 0.4 % of control | 90.6 % of control | 15.8 % of control | – | – | – | –
8 | CN(C(=O)n1cnc(-c2cccc(-c3cccc(O)c3)c2)c1)C1CCCCC1 [Compound 247, N-cyclohexyl-4-(3′-hydroxybiphenyl-3-yl)-N-methyl-1H-imidazole-1-carboxamide] | 0.5 % of control | 131.7 % of control | 85.5 % of control | – | – | – | –
9 | CN(C(=O)n1cnc(-c2cccc(-c3cccc(OC(F)(F)F)c3)c2)c1)C1CCCCC1 [Compound 248, N-cyclohexyl-N-methyl-4-(3′-(trifluoromethoxy)biphenyl-3-yl)-1H-imidazole-1-carboxamide] | 68.9 % of control | 104.2 % of control | 57 % of control | – | – | – | –
10 | CC(C)N(Cc1ccccc1)C(=O)n1cnc(-c2ccccc2)c1 [Compound 250, N-benzyl-N-isopropyl-4-phenyl-1H-imidazole-1-carboxamide] | 90.5 % of control | 102.1 % of control | 52.6 % of control | – | – | – | –
11 | Cc1c(-c2ccccc2)ncn1C(=O)N(C)C1CCCCC1 [Compound 254, N-cyclohexyl-N,5-dimethyl-4-phenyl-1H-imidazole-1-carboxamide] | 81 % of control | 98.3 % of control | 89.9 % of control | 109 % of control | – | – | –
12 | CN(C(=O)n1cnc(-c2cccc(-c3cccc(Cl)c3)c2)c1)C1CCCCC1 [Compound 257, 4-(3′-chlorobiphenyl-3-yl)-N-cyclohexyl-N-methyl-1H-imidazole-1-carboxamide] | 65.6 % of control | 60.1 % of control | 12.2 % of control | – | – | – | –
13 | CC1(C)COCN1C(=O)n1cnc(-c2ccc(O)cc2)c1 [Compound 260, (4,4-dimethyloxazolidin-3-yl)(4-(4-hydroxyphenyl)-1H-imidazol-1-yl)methanone] | 95.3 % of control | 8.1 % of control | 7.8 % of control | 37.3 % of control | – | – | –
14 | CN(C(=O)n1cnc(-c2ccc(O)cc2)c1)C1CCCCC1 [Compound 261, N-cyclohexyl-4-(4-hydroxyphenyl)-N-methyl-1H-imidazole-1-carboxamide] | 54.1 % of control | 1.2 % of control | 1.2 % of control | 0 % of control | – | – | –
15 | Cc1c(-c2ccccc2)ncn1C(=O)N1COCC1(C)C [Compound 263, (4,4-dimethyloxazolidin-3-yl)(5-methyl-4-phenyl-1H-imidazol-1-yl)methanone] | 92.1 % of control | 98.1 % of control | 98.8 % of control | – | – | – | –
16 | Cc1c(-c2ccccc2)ncn1C(=O)N(C)Cc1ccccc1 [Compound 264, N-benzyl-N,5-dimethyl-4-phenyl-1H-imidazole-1-carboxamide] | 88 % of control | 115 % of control | 76.6 % of control | – | – | – | –
17 | CCC1CN(C(=O)n2cnc(-c3ccc(Cl)cc3)c2)C(C)(C)O1 (stereo not drawn) [Compound 267, (4-(4-chlorophenyl)-1H-imidazol-1-yl)(5-ethyl-2,2-dimethyloxazolidin-3-yl)methanone] | 84.1 % of control | 79.4 % of control | 83.7 % of control | – | – | – | –
18 | CN(C(=O)n1cnc(-c2ccc(F)c(F)c2)c1)C1CCCCC1 [Compound 272, N-cyclohexyl-4-(3,4-difluorophenyl)-N-methyl-1H-imidazole-1-carboxamide] | 63.6 % of control | 19 % of control | 7.1 % of control | – | – | – | –
19 | CN(C(=O)n1cnc(-c2ccc(F)cc2)c1)C1CCCCC1 [Compound 273, N-cyclohexyl-4-(4-fluorophenyl)-N-methyl-1H-imidazole-1-carboxamide] | – | – | – | – | 65.1 % of control | 3.4 % of control | 2.6 % of control
20 | CN(C(=O)n1cnc(-c2cccc([N+](=O)[O-])c2)c1)C1CCCCC1 [Compound 275, N-cyclohexyl-N-methyl-4-(3-nitrophenyl)-1H-imidazole-1-carboxamide] | – | – | – | – | 43.8 % of control | 12.8 % of control | 2.4 % of control
